In patent US9445606B2, “Use of 4-hydroxydihydrochalcones and their salts for enhancing an impression of sweetness” (SYMRISE AG, priority 2006, dated 2016):

Experiments:
[1] = Enhancing the impression of sweetness of a solution containing a sweet-tasting substance (expert panel rating), sucrose; format: in vivo; settings: 30 ppm substance, 5%
Description: (§1) In order to quantify the enhancement of an impression of sweetness by adding 4-hydroxydihydrochalcones to be used according to the invention, the sweetness of a solution containing a sweet-tasting substance and of samples containing the same amount of sweet-tasting substance and in addition a certain concentration of the 4-hydroxydihydrochalcones of the formula (I) to be used according to the invention was determined by a group of experts (classification 0 [extremely weaklysweet] to 10 [extremely sweet]). Evaluation was performed by calculating the enhancement (in %) of the impression of sweetness from the average values of the ratings for the solution containing the sweet-tasting substance (a) and for the solution containing the sweet-tasting substance and 4-dydroxydihydrochalcones (b).

[2] = Impression of sweetness of a sugar-reduced test solution (5% sucrose + compound against 6% sucrose); format: in vivo
Text: In order to quantify the retention of an impression of sweetness when replacing a proportion of sucrose with a small amount of 4-hydroxydihydrochalcones of the formula (I) being used in accordance with the invention, the sweetness (a) of a solution containing 6 wt. % of sucrose as compared with a solution containing 5 wt. % of sucrose and (b) or (c) of a solution containing 6 wt. % of sucrose as compared with a solution containing 5% of sucrose and a certain concentration of a 4-hydroxydihydrochalcone being used according to the invention was determined by a group of experts (classification 0 [not sweet] to 10 [extremely sweet]). Evaluation was performed by calculating the enhancement (in %) of the impression of sweetness from the average values of the estimates for the solutions of 6% sucrose (second column) and for the solutions containing 5% sucrose and optionally the 4-hydroxydihydrochalcone of the formula (I) being used according to the invention (third column).

[3] = Enhancing the impression of sweetness of a solution containing a sweet-tasting substance (expert panel rating), glycerine; format: in vivo; settings: 30 ppm substance, 5%
Description: as §1

[4] = in particular in clear aqueous applications; cited from earlier work

Structure (SMILES) | total number of tasters / number of tasters who felt that test solution (b) was sweeter than test solution (a) [1] | % enhancement of the impression of sweetness ([1]; (b) with against (a) without) | Impression of sweetness (1-10) b) with ([1]; mean ± standard deviation) | total number of tasters / number of tasters who felt the 5 wt. % sucrose test solution with substance sweeter than 6 wt. % sucrose ([2]; 5% sucrose + 30 ppm substance) | % enhancement of the impression of sweetness ([2]; 5% sucrose + 30 ppm substance against 6% sucrose) [%] | Impression of sweetness (1-10) ([2]; 5% sucrose + 30 ppm substance, mean ± standard deviation) | total number of tasters / number of tasters who felt that test solution (b) was sweeter than test solution (a) [3] | % enhancement of the impression of sweetness ([3]; (b) with against (a) without) | Impression of sweetness (1-10) b) with ([3]; mean ± standard deviation) | solubility [4]
O=C(CCc1ccc(O)cc1)c1c(O)cc(O)cc1O [compound 4, 3-(4-hydroxyphenyl)-1-(2,4,6-trihydroxyphenyl)propan-1-one] | 16/14 | +31% | 7.4 ± 1.4 | 16/7 | −4.9 | 6.1 ± 1.4 | 16/11 | +45% | 4.4 ± 2.1 | 
COc1ccc(C2CC(=O)c3c(O)cc(O)cc3O2)cc1O (stereo not shown) [hesperetin] |  |  |  |  |  |  |  |  |  | low solubility
